US10052317B2, “Method for treating or preventing hot flushes” (Imperial Innovations Limited, priority 2013, dated 2018)
*1 amine or outer side, *2 acyl side, *3 side chain or, on linkers, in order; H or OH if unused. Where a SMILES comes first, the peptide text is derived from it. [ ]: non-standard residue; d: D form. NMeF = CN[C@@H](Cc1ccccc1)C(=O)O; Suc = O=C(CCC(=O)[*:2])[*:1]

Columns and labels:
[1] = biological target: T1, NKR3 (Homo sapiens, UniProt P29371); details: literature (Spooren 2006; Griebel 2012; Elmore 2011); cited from earlier work
T1 sequence (P29371 1-465): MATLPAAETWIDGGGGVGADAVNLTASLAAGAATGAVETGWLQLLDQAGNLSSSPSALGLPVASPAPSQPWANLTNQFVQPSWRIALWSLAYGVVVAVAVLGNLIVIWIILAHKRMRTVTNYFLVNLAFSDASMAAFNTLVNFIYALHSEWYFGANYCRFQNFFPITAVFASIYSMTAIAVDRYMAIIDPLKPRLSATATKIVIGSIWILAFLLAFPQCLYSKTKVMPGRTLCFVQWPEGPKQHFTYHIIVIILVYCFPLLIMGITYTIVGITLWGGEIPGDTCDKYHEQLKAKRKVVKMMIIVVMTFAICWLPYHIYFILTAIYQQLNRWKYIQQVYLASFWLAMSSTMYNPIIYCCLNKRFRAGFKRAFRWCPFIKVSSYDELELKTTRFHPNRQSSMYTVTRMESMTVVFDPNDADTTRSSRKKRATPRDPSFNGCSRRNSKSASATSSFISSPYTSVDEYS

[2] = system: ovariectomised rats; details: Dacks et al. 2011; cited from earlier work
[3] = system: healthy male subjects; assay: Dose-finding study with 90-min intravenous infusion of NKB to healthy men; assay type: in vivo, human
Excerpt: Human sequence neurokinin B was synthesised by Bachem Holding AG (Bubendorf, Switzerland), and purified by reverse-phase high performance liquid chromatography (HPLC). Electrospray mass spectroscopy and amino acid analysis confirmed identity of the peptide (lot:3007511). The Limulus amoebocyte lysate test detected no endotoxin (Associates of Cape Cod, Liverpool, UK), and bacterial culture was sterile (Department of Microbiology, Hammersmith Hospital, London, UK) in samples of neurokinin B peptide. Vials of freeze-dried neurokinin B were stored at −20° C. and reconstituted in 0.9% saline.
23 healthy male subjects participated in the study (mean age of 23 subjects: 29.0±1.3 years; mean body mass index of 23 subjects: 23.3±0.3 kg/m2), following ethical approval (reference:10/H0707/68) and written consent, in accordance with The Declaration of Helsinki. No subjects had any history of hot flushes, deficient levels of sex hormones, or were receiving any regular medications.
Studies were performed in the Clinical Investigation Unit, during which subjects asked to lay supine. This study was blinded to subjects but not investigators. NKB was dissolved in a vehicle consisting of saline containing Gelofusin (5% vol/vol) (B. Braun Medical, Sheffield, UK) to minimize peptide adsorption. […] Heart rate, blood pressure, and adverse symptoms were recorded at regular intervals. […]

[4] = system: healthy female subjects; assay: 180-min intravenous infusion of NKB to healthy women, hot flush symptom diary; assay type: in vivo, human
Experimental: Eight healthy female subjects participated in the study, following ethical approval (reference: 10/H0707/68) and written consent, in accordance with The Declaration of Helsinki. All subjects had regular periods. No subjects had any history of hot flushes, deficient levels of sex hormones, or were receiving any regular medications.
(§1) Human sequence neurokinin B was obtained and used as described above.
[…] Continuous cardiac monitoring was performed. Heart rate, blood pressure, and adverse symptoms were recorded at regular intervals. Participants were asked to complete a symptom diary in order to measure subjective frequency and problem rating of hot flushes during each study visit. All subjects also completed a questionnaire at the end of each study visit to summarise the symptoms that they experienced that day. Data was analysed by an investigator in a blinded manner.
Data are presented as mean±standard error of mean (SEM). Multiple means were compared using one-way ANOVA with Dunnett's post-hoc test. Pairs of means were compared using paired two-tailed t-tests.

[5] = system: healthy female volunteers; assay: Symptom assessment study during 30-min iv infusion of NKB to healthy women; assay type: in vivo, human; details: 5.12 nmol/kg/min iv for 30 min
Excerpt: Five healthy female volunteers participated in the study (mean age 37.8±1.7y; mean body mass index 21.9±0.7 kg/m2), following ethical approval (reference: 10/H0707/68) and written consent, in accordance with The Declaration of Helsinki. Participants had no medical problems, were not on any regular medication and had regular menstrual cycles. Participants attended in the mornings and during the follicular phase of their menstrual cycle to minimise physiological changes in body temperature occurring during sleep and associated with ovulation (1) (Day of menstrual cycle: 8.0±0.9)
as §1
Participants were admitted in the morning to the Clinical Investigation Unit between days 3 and 10 of their menstrual cycle, and asked to lay supine for the 180 minute study duration (FIG. 2). A cannula was inserted into a large forearm vein and NKB (5.12 nmol/kg/min) was administered by intravenous (iv) infusion for 30 min commencing at t=90 min. This dose of NKB was selected as it was the maximal dose that was well-tolerated dose experiment 1, above. NKB was dissolved in saline containing gelofusin (5% vol/vol) (B. Braun Medical, Sheffield, UK) to minimize peptide adsorption (Kraegen E W, Lazarus L, Meler H, Campbell L, Chia Y O, Br Med J (1974), 3:464-466). Participants (but not investigators) were blinded as to the identity of the infusion (NKB or vehicle, however all participants received NKB). Participants were informed before the study that they may experience body sensations or symptoms and they were asked to report these in real time during the study. Participants were not specifically informed that they may experience ‘hot flush’ symptoms so as to minimise reporting bias.
Data are presented as mean±standard error of mean (SEM). Means were compared using two-tailed paired t-tests. p<0.05 was considered statistically significant.

[6] = system: healthy female volunteers; assay: Double-blinded placebo-controlled physiological assessment study during iv infusion of NKB and vehicle to healthy women; assay type: in vivo, human; details: for mean HR / mean skin temperature by skin probe / mean skin temperature by thermal imaging camera / mean MAP: NKB infusion
Excerpt: Ten healthy female volunteers participated in the study (mean age 35.3±1.3y; mean body mass index 22.1±0.7 kg/m2), following ethical approval (reference: 10/H0707/68) and written consent, in accordance with The Declaration of Helsinki. Participants had no medical problems, were not on any regular medication and had regular menstrual cycles. Participants attended in the mornings and during the follicular phase of their menstrual cycle to minimise physiological changes in body temperature occurring during sleep and associated with ovulation (1) (Day of menstrual cycle: 5.9±0.6)
as §1
Having observed in Example 3 that participants reported flushing during NKB infusion, a double-blinded placebo-controlled study was carried out. This was performed in a climate-controlled Clinical Research Unit with ambient temperature 24° C. and humidity 50% as has been established in previous studies to be a suitable environment to investigate menopausal flushing (e.g. de Bakker I P, Everaerd W, Maturitas (1996) 25:87-98; Carpenter J S, Gilchrist J M, Chen K, Gautam S, Freedman R R, Menopause: The Journal of The North American Menopause Society (2004) 11:375-381). Participants were admitted on a morning between days 3 and 10 of their menstrual cycle, and asked to lay supine for the 270 minute study duration (FIG. 3). A cannula was inserted into a large forearm vein in both arms: one for collection of blood, and the second for vehicle (gelofusin) or NKB infusion. 30 minute iv infusion of either NKB ([…]) or vehicle (equivalent volume) were commenced at t=60 min and t=180 min, by an investigator blinded to the identity of each infusion. Each participant received one NKB infusion and one vehicle infusion, randomised and prepared by an independent investigator. Participants were informed that they could receive any of the following: NKB followed by vehicle; vehicle followed by NKB; NKB twice; vehicle twice. This strategy ensured integrity of blinding, since any symptoms experienced during the first infusion would not allow participants to automatically deduce the identity of the second infusion.
In order to prevent confounding factors which may affect flushing, participants were asked to refrain from hot drinks, caffeine, alcohol and spicy foods for 12 hours preceding the study start and for the duration of the study. All participants wore light cotton standard hospital gowns. All studies commenced between 9.30-10.30 am. Two experienced physicians were in attendance at all times. Symptoms, heart rate, blood pressure, sweating and skin temperature monitoring were performed as detailed below:
Heart Rate (HR) and Mean Arterial Blood Pressure (MAP): HR was recorded minutely for 20 minutes pre-infusion until 20 minutes post-infusion. MAP was recorded at 5 minute intervals (to minimize discomfort) for 20 minutes pre-infusion until 20 minutes post-infusion. At other times HR and MAP were recorded at 10 minute intervals (FIG. 3). MAP (in mmHg) was calculated using the following standard formula: MAP=((2×diastolic BP)+systolic BP)/3.
Skin Temperature: Skin temperature was recorded each minute for 20 minutes pre-infusion until 20 minutes post-infusion and at 10 minute intervals at other times. Skin temperature was measured by skin temperature probe attached to the neck (Mindray, Huntingdon, UK) and by thermal imaging camera (T440Bx, Flir, Wilsonville, USA). Thermal imaging temperature values were determined by in-built software which recorded the highest temperature point in a box constructed to contain the shoulders and head of the participant.
Skin Conductance: Increased skin conductance is an objective marker of sweating which occurs in menopausal flushing. […]

[7] = 5.12 nmol/kg/h iv for 30 min, of the flushing participants
[8] = during flushing symptoms, p<0.05 vs. pre-symptoms
[9] = entire 30 minute NKB infusion period vs vehicle infusion period
[10] = over the entire duration of the infusion

In the case of `CC[C@H](NC(=O)c1c(O)c(-c2ccccc2)nc2ccccc12)c1ccccc1` [Talnetant, 3-hydroxy-2-phenyl-N-(1-phenylpropyl)quinoline-4-carboxamide], the “selectivity for NKR3 over NKR1 and NKR2” value [1] is given as “selective for NKR3 over NKR1 and NKR2”.

In the case of `CC(=O)N(C)C1(c2ccccc2)CCN(CCC[C@]2(c3ccc(Cl)c(Cl)c3)CCCN(C(=O)c3ccccc3)C2)CC1` [Osanetant, (R)-N-{{3-[1-Benzoyl-3-(3,4-dichlorophenyl)piperidin-3-yl]prop-1-yl}-4-phenylpiperidin-4-yl}-N-methylacetamine], the “selectivity for NKR3 over NKR1 and NKR2” value [1] is given as “selective for NKR3 over NKR1 and NKR2”.

In the case of `CSCC[C@H](NC(=O)[C@H](CC(C)C)NC(=O)CNC(=O)[C@H](Cc1ccccc1)N(C)C(=O)[C@H](Cc1ccccc1)NC(=O)[C@H](CC(=O)O)NC(=O)CCC(=O)O)C(N)=O` [senktide] (Suc-DF[NMeF]GLM-NH2), the core temperature [2] is given as “reduced core temperature”.

For “NKB: Human sequence neurokinin B synthesised by Bachem, purified by reverse-phase HPLC; tachykinin peptide, natural ligand for NKR3”, the “time to full resolution of symptoms after administration was discontinued” value ([3]; 10.24 nmol/kg/h) was no more than 5 min, the reproductive hormone secretion ([3]; intravenous administration) was “did not stimulate significant reproductive hormone secretion” and the hot flushes experienced ([4]; healthy women, iv infusion 0.64 nmol/kg/h (lowest dose)) was “No hot flushes were experienced”. The “healthy women who experienced hot flushes” value ([4]; iv infusion 1.28 nmol/kg/h) was 1/6, the “healthy women who experienced hot flushes” value ([4]; iv infusion 2.56 nmol/kg/h) was 2/7 and the “healthy women who experienced hot flushes” value ([4]; iv infusion 5.12 nmol/kg/h (highest dose)) was 7/8. The “mean number of hot flushes per visit” value ([4]; iv infusion 5.12 nmol/kg/h, mean±SEM, P<0.01 vs. placebo (0)) was 1.13±0.30, the “participants experiencing flushing who reported a single flushing episode” value [5] was “Three of the four” and the “participants who experienced three flushing episodes” value [5] was “one”. The “participants reporting flushing during NKB infusion” value ([5]; P<0.05 vs. vehicle) was “four out of the five”, the “onset of first flushing episodes after NKB infusion initiation” value ([6]; 5.12 nmol/kg/h iv for 30 min) was 1 to 12 min and the “severity of flushing symptoms” value ([6]; 5.12 nmol/kg/h iv for 30 min) was “mild to strong”. For the same compound, the “participants who experienced flushing during NKB infusion” value ([6]; 5.12 nmol/kg/h iv for 30 min, double-blinded) was “eight out of ten”, the “participants with a single flushing episode” value [6, 7] was “five” and the “participants with three flushing episodes” value [6, 7] was “two”. For the same compound, the “participants with two flushing episodes” value [6, 7] was “one”, the “participants with concordant increases in sternal skin conductance at the time of flushing” value ([6]; 5.12 nmol/kg/h iv, of the flushing participants) was “six of the eight” and the “mean HR” value [6, 8] was 76.2±1.6 bpm. For the same compound, the “mean skin temperature by skin probe” value [6, 8] was 34.7±0.3 Celsius, the “mean skin temperature by thermal imaging camera” value [6, 8] was 36.8±0.1 Celsius and the “mean MAP” value ([6]; during flushing symptoms, p=ns vs. pre-symptoms) was 82.5±2.2 mmHg. For the same compound, the “mean MAP” value ([6]; pre-symptom period) was 83.2±8.6 mmHg, the “mean skin temperature by skin probe” value ([6]; pre-symptom period) was 34.6±0.2 Celsius and the “mean skin temperature by thermal imaging camera” value ([6]; pre-symptom period) was 36.7±0.1 Celsius. The “mean HR” value ([6]; pre-symptom period, mean±SEM) was 70.3±2.1 bpm, the “change in serum FSH” value [6, 9] was “No significant changes” and the “change in serum LH” value [6, 9] was “No significant changes”. The “change in serum estradiol” value [6, 9] was “No significant changes”, the “overall change in HR, NKB vs vehicle infusion” value [6, 10] was “No overall changes” and the “overall change in mean arterial blood pressure (MAP), NKB vs vehicle infusion” value [6, 10] was “No overall changes”. For the same compound, the “overall change in skin temperature (skin probe or thermal imaging camera), NKB vs vehicle infusion” value [6, 10] was “No overall changes”.
